According to PMC4929710, “Specificity and mechanism of action of alpha-helical membrane-active peptides interacting with model and biological membranes by single-molecule force spectroscopy” (Scientific Reports, 2016):
Where two headings read alike, the source gives them in different places.

What was measured:
[1] = system: PC/SM/PE/PS/Chol (4.35:4.35:1:0.3:1 w/w) LUVs; assay: Tryptophan fluorescence with LUVs; format: binding; settings: PC/SM/PE/PS/Chol (4.35:4.35:1:0.3:1 w/w) LUVs versus HEPES buffer, 25 °C
From the text: (§1) In order to investigate the interaction between peptides and difference types of cell membranes, three different LUVs were used to mimic a prokaryotic cell membrane (PC/PG), a normal eukaryotic cell membrane (PC/Chol), and a cancer cell membrane (PC/SM/PE/PS/Chol). Tryptophan residue in the peptide sequence was used as a fluorescent probe to examine the interaction of peptides with model membranes. […] For example, in the PC/PG (7:3 w/w) anionic prokaryotic mimicking model membrane, peptides V13L and A12L/A20L had the strongest hydrophobicity with blue shift values of approximately 37 nm and 38 nm, respectively. Conversely, peptide V13E with a negative charge of glutamic acid residue, and peptide L6A/L17A with the lowest hydrophobicity had blue shift values of approximately 18 nm and 17 nm, respectively. […] In addition, within PC/SM/PE/PS/Chol (4.35:4.35:1:0.3:1 w/w) as a cancer-mimicking model membrane, the same results could be obtained in that peptide hydrophobicity correlates with anticancer activity and the blue shift values of peptides.
(§2) In accordance with previously described methods, LUVs were prepared with PC/PG (7:3 w/w), PC/Chol (8:1 w/w), and PC/SM/PE/PS/Chol (4.35:4.35:1:0.3:1 w/w) to mimic prokaryotic cell, […], membranes, respectively. Lipids using the freeze-thaw method as described previously, followed by extrusion through […] double-stacked nuclepore filters using an Mini-Extruder (Avanti Polar Lipids, Inc.)[11][27].
(§3) Three kinds of LUVs were prepared and cultured in HEPES buffer (pH 7.4, 10 mM HEPES, 150 mM NaCl) and the molar concentration was adjusted to 100 μM. A total of 14 μL of 100 μM MAPs was mixed with 686 μL of 100 μM liposomes at 25 °C for 10 min. A Shimadzu RF-5301PC, (excitation wavelength of […], emission wavelength of 300–450 nm) was used to measure the tryptophan fluorescence. Potassium iodide (KI) as a quencher was added to the previous reaction system for a final concentration of 0.02–0.08 M, respectively. The experimental data were plotted according to the Stern–Volmer equation F0/F = 1 + Ksv[Q], where F0 and F are the fluorescence intensity in the absence or presence of a quencher at concentration [Q], respectively, and Ksv is the Stern–Volmer quenching constant.

PC/Chol (8:1 w/w) LUVs [2] = assay: Tryptophan fluorescence with LUVs; format: binding; settings: PC/Chol (8:1 w/w) LUVs versus HEPES buffer, 25 °C
From the text: as §1, §2, §3

3T3-L1 cells [3] = assay: Single-molecule force spectroscopy (AFM); format: binding, mouse; settings: RMS ± SD; N-terminal Cys peptide on AFM tip via PEG linker
From the text: (§4) Based on the above results, five selected peptides of V13L, A12L/A20L, V13K, V13E, and L6A/L17A, with different hydrophobicity and charges were used to examine the interaction probabilities and forces between peptides and membranes, both on the lipid model membranes and on the biological membranes by SMFS based on AFM, respectively. A cysteine residue was covalently introduced to the N-terminus of peptides and provided a free sulfhydryl group to modify the tips of the AFM. A PEG linker was used since each heterobifunctional PEG–NHS linker (approximately 20 nm) can only covalently connect with a single peptide molecule, which guarantees a single-molecule interaction between MAPs and biological membranes in real time[19]. If an AFM tip was functionalized with two or more peptides, where several peaks were recorded. In the reports, data with two peaks were not collected and calculated. For one force–distance cycle, one peptide-functionalized AFM tip approached the model and biological membranes right on the top, and the subsequent tip was withdrawn from the cell membranes to retrace the process. […] In addition, blocking experiment was used to test the specificity of these force events. As the electrostatic attraction is one important reason for peptides approaching model membranes and biological membranes, the Tris-HCl buffer including plenty amino groups[20] was injected into the working chamber and inhibits the interactions between MAPs and model membranes/biological membranes. […] The unbinding forces of V13L against different model membranes and biological membranes with the loading rate of 1 × 10^5 pN s^−1 are shown in Fig. 3c,f–h,j–l.
(§5) The AFM tip was first washed with concentrated sulfuric acid and hydrogen peroxide (3:1, v:v). The tip was dried using ozone (O3) for 15 min and dried overnight in a dryer. The tip was then modified with APTES under an argon atmosphere and the peptide connected with a PEG–NHS linker. Finally, the AFM tip linked with the peptide was washed three times in PBS and kept at 4 °C. A 500-μL LUV suspension was deposited on Lys coated glass and the LUVs were absorbed on the surface for 1 h at 65 °C [9][29]. A. laidlawii was deposited on poly-L-lysine coated glass and absorbed for 1 h at 37 °C [30]. The 3T3-L1 and HeLa cells were cultured on glass slides in Dulbecco’s modified Eagle’s medium (DMEM). Before performing force spectroscopy experiments, the cells were washed with fresh DMEM three times to remove the cell metabolites. Isolation of chicken erythrocytes was carried out at room temperature. Then the erythrocytes were washed three times in 2 mL PBS buffer by centrifuge (1,000 rpm) and resuspended in PBS buffer. 200 μL erythrocyte suspension were deposited onto poly-L-lysine coated glass for 20 min[10]. […]

PC/Chol (8:1 w/w) LUVs [4] = assay: Single-molecule force spectroscopy (AFM); format: binding; settings: RMS ± SD; N-terminal Cys peptide on AFM tip via PEG linker; normal eukaryotic model membrane
From the text: as §4
Lipids using the freeze-thaw method as described previously, followed by extrusion through […] double-stacked nuclepore filters using an Mini-Extruder (Avanti Polar Lipids, Inc.)[11][27].
as §5, with “temperature.” for “temperature. Then the erythrocytes were washed three times in 2 mL PBS buffer by centrifuge (1,000 rpm) and resuspended in PBS buffer. 200 μL erythrocyte suspension were deposited onto poly-L-lysine coated glass for 20 min[10].”

3T3-L1 cells [5] = format: cell-based, mouse; settings: 24 h
Description: (§6) The MTT cell proliferation assay was used to investigate the anticancer activity and cytotoxicity of MAPs against cancer cell lines (HeLa, A549, SGC-7901, and B16) and normal cells (3T3-L1), respectively. Cells (5 × 10^3) were seeded in 96-well plates and incubated overnight. The peptide samples were then added to cells with final concentrations ranging from 1 μM to 125 μM. After 24 h, 20 μL of 5 mg/mL MTT solution in PBS was added to the cells and treated for 4 h at 37 °C. The formazan crystals were dissolved by 150 μL of dimethyl sulfoxide (DMSO). Finally, the absorbance was determined at 492 nm. The results were expressed as IC50, representing the concentration at which cell viability was reduced by 50%. All assays were repeated in triplicate.

B16 cells = format: cell-based, mouse; settings: 24 h
Description: as §6

[6] = normal cells, MTT, 1-125 μM, triplicate, read-out: IC50 3T3-L1
[7] = MTT, 1-125 μM, triplicate, read-out: IC50 B16

Compound	PC/SM/PE/PS/Chol Blueshift [1] [nm]	PC/Chol Blue shift (PC/Chol (8:1 w/w) LUVs [2]) [nm]	Unbinding force 3T3-L1 (3T3-L1 cells [3]) [pN]	Unbinding force PC/Chol (PC/Chol (8:1 w/w) LUVs [4]) [pN]	IC50 (3T3-L1 cells [5]; [6]) [µM]	IC50 (B16 cells; [7]) [µM]	IC50 (3T3-L1 cells [5]) [µM]	IC50 (B16 cells) [µM]
Ac-KWKSFAKTFKSAKKTVAHTALKAISS-NH2 [L6A/L17A]	21	0	39 ± 12	100 ± 34	> 125	> 125	–	–
Ac-KWKSFLKTFKSALKTVLHTALKAISS-NH2 [Peptide V13L]	–	11	30 ± 11	98 ± 30	–	–	6.55	3.51
Ac-KWKSFLKTFKSAEKTVLHTALKAISS-NH2 [Peptide V13E]	23	1	51 ± 11	89 ± 34	–	–	> 125	120
CC[C@H](C)[C@H](NC(=O)[C@H](C)NC(=O)[C@H](CCCCN)NC(=O)[C@H](CC(C)C)NC(=O)[C@H](C)NC(=O)[C@@H](NC(=O)[C@H](Cc1cnc[nH]1)NC(=O)[C@H](CC(C)C)NC(=O)[C@@H](NC(=O)[C@@H](NC(=O)[C@H](CCCCN)NC(=O)[C@H](CCCCN)NC(=O)[C@H](C)NC(=O)[C@H](CO)NC(=O)[C@H](CCCCN)NC(=O)[C@H](Cc1ccccc1)NC(=O)[C@@H](NC(=O)[C@H](CCCCN)NC(=O)[C@H](CC(C)C)NC(=O)[C@H](Cc1ccccc1)NC(=O)[C@H](CO)NC(=O)[C@H](CCCCN)NC(=O)[C@H](Cc1c[nH]c2ccccc12)NC(=O)[C@H](CCCCN)NC(C)=O)[C@@H](C)O)[C@@H](C)O)C(C)C)[C@@H](C)O)C(=O)N[C@@H](CO)C(=O)N[C@@H](CO)C(N)=O [Peptide V13K]	27	4	51 ± 15	101 ± 37	26.2	11.9	–	–
